Among the data in patent US4665022A (priority 1984, dated 1987) are Ki values, retold here.

Like-named read-outs stand apart in the source and are kept apart here.

Test [1] addresses nACh receptors in the cerebral cortex (Rattus norvegicus, UniProt Q05941). Briefly: biochemical. The class given is binding.
Test [2] concerns the target nicotinic binding sites. Details: species or system rat.

Sequence of nACh receptors in the cerebral cortex (Q05941 23-502): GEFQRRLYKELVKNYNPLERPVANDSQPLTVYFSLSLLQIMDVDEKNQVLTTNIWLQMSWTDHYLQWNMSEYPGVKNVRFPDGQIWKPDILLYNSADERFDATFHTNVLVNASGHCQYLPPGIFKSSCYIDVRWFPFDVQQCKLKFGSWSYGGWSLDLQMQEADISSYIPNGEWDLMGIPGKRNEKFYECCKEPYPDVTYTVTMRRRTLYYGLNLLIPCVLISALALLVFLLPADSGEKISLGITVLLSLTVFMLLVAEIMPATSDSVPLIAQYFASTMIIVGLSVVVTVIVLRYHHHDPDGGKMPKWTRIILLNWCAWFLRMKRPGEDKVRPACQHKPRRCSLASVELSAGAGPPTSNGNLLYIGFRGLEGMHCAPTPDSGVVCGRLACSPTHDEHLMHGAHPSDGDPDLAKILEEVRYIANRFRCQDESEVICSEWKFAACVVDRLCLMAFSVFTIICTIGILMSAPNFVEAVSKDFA

In general, Ki refers to a dissociation constant, usually derived from enzyme kinetics or from competition with a known ligand. Take `CN1[C@@H]2C[C@@H](OC(=O)[C@H](CO)c3ccccc3)C[C@H]1[C@@H]1O[C@@H]12` [scopolamine]: the Ki in test [1] was > 10000 µM.

For `C[N+](C)(C)CCOC(N)=O` [carbamyl choline], the Ki in test [1] (read-out: KI) turned out to be 0.2 µM.

For `COc1cc2c3cc1Oc1cc(ccc1O)C[C@@H]1c4c(cc(OC)c(O)c4Oc4ccc(cc4)C[C@@H]3N(C)CC2)CC[N+]1(C)C` [d-tubocurarine], the inhibition constant (Ki) in test [1] (read-out: KI) was determined as 0.06 µM.

For the molecule alpha-bungarotoxin, the results for the inhibition constant (Ki) in test [2] and in test [1] (read-out: KI) were 0.00013 µM and 0.00012 µM, respectively.
